Assay results from US6046340A, “Imidazole containing pseudodipeptide product and compositions containing the same” (Exsymol Societe Anonyme Monegasque, priority 1993, dated 2000).

Experiments:
[1] = Inhibitory power on the superoxide anion (xanthine oxydase/hypoxanthine, cytochrome C reduction at 550 nm); format: biochemical; conditions: for ability to inhibit the superoxide anion / reduction of cytochrom c (in words): enzymatic system generating superoxide anion
Source text: System of production of superoxide anion:xanthine oxydase/hypoxanthine (absence of iron).
The superoxide anion is a reducing substance. It is more especially able to reduce a substrate, the cytochrome C. Its reduction is followed with ultraviolet spectrophotometry to 550 nm.
The percentage of inhibition is described as follows: […]

[2] = Inhibitory power on the hydroxyl radical (deoxyribose oxidation, EDTA/iron, H2O2, thiobarbituric acid/MDA detection); format: biochemical; conditions: antioxidant 10 mM; deoxyribose substrate
Source text: Experimental procedure described by J. M. C. Gutteridge in Biochemistry Journal, vol 224 (1984), p. 761-767: oxidation substrate: deoxyribose, system of production of the hydroxyl radical OH.:
Detection: thiobarbituric acid/mondialdehyde (MDA)
Antioxidant of reference: dipeptide β-alanyl-L-histidine (sensitive to enzymatic deactivation)

murine splenocytes = assay: Immunostimulating power: proliferation of murine splenocytes (tritiated thymidine incorporation); format: cell-based; conditions: for stimulation index (IS): mean of three measurements
Source text: Then experimental procedure is extracted from: J. Kunert-Radek, H. Stepien, K. Lyson and M. Pawlikowki--"Effects of calcium channel modulators on the proliferation of mouse spleen lymphocytes in vitro"--Agents and Actions, vol. 29 Nos 3-4 (1990), p. 254-258.
The cell proliferation is followed by the measurement of the incorporation rate of the tritiated thymidine in the cells, expressed in number of desintegrations per mn, deduced from the background noise.
The results obtained with an immunostimulator of reference, the concanavaline A, are given for comparison.
The immunostimulating effect is expressed with a stimulation index (SI). [formula] The values correspond to the mean value of three measurements.

human monocytes = assay: Cell proliferation of a homogenous population of human monocytes (tritiated thymidine incorporation); format: cell-based
Source text: In order to specify the pseudodipeptides mode of action, a second experiment has been carried out on an homogenous population of human monocytes.
Cell proliferation has been evaluated the same way as previously: […]

Compound | % of inhibition (superoxide anion, cytochrome C reduction) ([1]; 1 mM) | % of inhibition (superoxide anion, cytochrome C reduction) ([1]; 5 mM) | % of inhibition (superoxide anion, cytochrome C reduction) ([1]; 10 mM) | % of inhibition (superoxide anion, cytochrome C reduction) ([1]; 20 mM) | ability to inhibit the superoxide anion / reduction of cytochrom c (in words) [1] | % inhibiton (hydroxyl radical OH.) [2] | stimulation index (IS) (murine splenocytes; 2.5 μg/ml) | stimulation index (IS) (murine splenocytes; 5.0 μg/ml) | stimulation index (IS) (murine splenocytes; 10.0 μg/ml) | stimulation index (IS) (murine splenocytes; 25.0 μg/ml) | concentration of maximal immunostimulating effect (murine splenocytes; murine splenocytes) | stimulation index (IS) (human monocytes; 2.50 μg/ml) | stimulation index (IS) (human monocytes; 5.00 μg/ml) | stimulation index (IS) (human monocytes; 10.00 μg/ml) | stimulation index (IS) (human monocytes; 25.00 μg/ml) | average factor of activity versus concanavaline A (human monocytes; human monocytes)
N[C@@H](CCC(=O)O)C(=O)NCCc1c[nH]cn1 [L-glutamyl-histamine, L-Glutamyl-histamine] | 3,5% | 14% | 24% | 35% | strongly inhibit | 0% | 7.8 | 42.7 | 42.1 | 5.6 | 5 µg/mL | 8.23 | 39.80 | 23.50 | 2.50 | 1.34
O=C(NCCc1c[nH]cn1)[C@@H]1CCCN1 [L-prolyl-histamine] | – | – | – | – | do not have the ability to inhibit | 62% | – | – | – | – | – | – | – | – | – | –
NCCC(=O)N[C@@H](Cc1c[nH]cn1)C(=O)O [β-alanyl-L-histidine, reference compound] | – | – | – | – | do not have the ability to inhibit | 38% | – | – | – | – | – | – | – | – | – | –
concanavaline A [reference compound] | – | – | – | – | – | – | 8.3 | 33.4 | 61.5 | 4.3 | – | 4.82 | 29.60 | 21.10 | – | –
